Here are results for 24 compounds from patent US12091425B2 (AMGEN INC., priority 2016, dated 2024).

In assay [1] the target is T1, Mcl-1/Bim interaction, recombinant human Mcl-1 (171-327) (Homo sapiens, UniProt Q07820).
T1 construct: made in house
As to the kind of experiment: Cell free Mcl-1: Bim Affinity Assay (Mcl-1 HTRF). Format: binding. In outline: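 Read-out is time-resolved FRET after overnight incubation, using a biotin-labelled peptide from human Bim (51-76) as the binding partner; IC50 was derived from competition curves.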
A general note: Time-resolved FRET reads energy transfer from a long-lived donor to a nearby acceptor.

Assay [2] relates to OPM-2 human multiple myeloma cell line. The assay is described as follows: Cell Viability Assay (OPM-2 10 FBS). Format: cell-based. To be noted: OPM-2 cells, CellTiter-Glo. In outline:
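Plated at 3000 cells/well in 10% FBS complete medium, the cells received a serial compound dilution series and incubated 16 h at 37 °C with 5% CO2. CellTiter-Glo was then added; IC50 values were fitted with a logistic 4-parameter model.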
(ATP-based viability assays read luminescence as a measure of living cells.)

[3] abbreviates: cell free Mcl-1:Bim TR-FRET, recombinant human Mcl-1 (171-327).
[4] abbreviates: Homo sapiens, OPM-2, 16 h, 16 h.
The mark [5] stands for this setting: TR-FRET, 0.1 nM Mcl-1 (171-327), 0.05 nM biotin-Bim (51-76).
[6] abbreviates: Homo sapiens, OPM-2, 16 h, 16 h incubation.

T1 sequence (Q07820 171-327): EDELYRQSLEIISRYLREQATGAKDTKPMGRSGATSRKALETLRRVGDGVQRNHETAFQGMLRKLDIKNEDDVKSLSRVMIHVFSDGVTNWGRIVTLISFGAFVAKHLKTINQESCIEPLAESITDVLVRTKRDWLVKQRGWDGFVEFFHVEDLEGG

By IC50 is commonly meant the point on the concentration scale where inhibition reaches its midpoint. On to `C[C@H]1C/C=C/[C@H](OCC(=O)O)[C@@H]2CC[C@H]2CN2C[C@@]3(CCCc4cc(Cl)ccc43)COc3ccc(cc32)C(=O)NS(=O)(=O)[C@H]1C` [Example 739, (((1S,3′R,6′R,7′S,8′E,11′S,12′S)-6-chloro-11′,12′-dimethyl-13′,13′-dioxido-15′-oxo-3,4-dihydro-2H-spiro[naphthalene-1,22′-[20]oxa[13]thia [1,14]diazatetracyclo[14.7.2.0^3,6.0^19,24]pentacosa[8,16,18,24]tetraen]-7′-yl)oxy)acetic Acid], for which the results for the IC50 in assay [1] (setting [3]) and in assay [2] (setting [4]) were 0.000141 µM and 24.2 µM, respectively.

Turning to `COC(=O)CC1C(C)CC=CC(O)C2CCC2CN2CC3(CCCc4cc(Cl)ccc43)COc3ccc(cc32)C(=O)NS1(=O)=O` (stereo not drawn) [Example 647], the IC50 turned out to be 0.000188 µM in assay [1] (setting [3]) and 0.131 µM in assay [2] (setting [4]).

For the compound `CO[C@H]1/C=C/C[C@@H]2C[C@H]2S(=O)(=O)NC(=O)c2ccc3c(c2)N(C[C@@H]2CC[C@H]21)C[C@@]1(CCCc2cc(Cl)ccc21)CO3` (single isomer, unassigned) [Example 803], the figures for the IC50 in assay [1] (setting [3]) and in assay [2] (16 h) were 0.00106 µM and 0.804 µM, respectively.

As to `COc1ccc(CN2[C@@H](C)C/C=C/[C@H](O)[C@@H]3CC[C@H]3CN3C[C@@]4(CCCc5cc(Cl)ccc54)COc4ccc(cc43)C(=O)NS2(=O)=O)cc1` (single isomer, unassigned) [Example 80], the values for the IC50 in assay [1] (setting [5]) and in assay [2] (setting [4]) were 0.00898 µM and 6.53 µM, respectively.

`CCC1CCC=CC(OC(C)C(=O)OC)C2CCC2CN2CC3(CCCc4cc(Cl)ccc43)COc3ccc(cc32)C(=O)NS1(=O)=O` (mixture of isomers) [Example 1004]: the results for the IC50 in assay [1] (setting [5]) and in assay [2] (16 h incubation) were 0.000635 µM and 0.0236 µM, respectively.

Consider `COCC[C@H]1[C@@H](C)C/C=C/[C@H](OC)[C@@H]2CC[C@H]2CN2C[C@@]3(CCCc4cc(Cl)ccc43)COc3ccc(cc32)C(=O)NS1(=O)=O` (single isomer, unassigned) [Example 396], for which the IC50 in assay [1] (setting [5]) turned out to be 0.000384 µM; in assay [2] (16 h) it was 0.186 µM.

Consider `O=C1NS(=O)(=O)C[C@@H]2C[C@@H]2/C=C/[C@H](O)[C@@H]2CC[C@H]2CN2C[C@@]3(CCCc4cc(Cl)ccc43)COc3ccc1cc32` (single isomer, unassigned) [Example 785], for which the figures for the half-inhibitory concentration (IC50) in assay [1] (setting [3]) and in assay [2] (16 h) were 0.00302 µM and 16 µM, respectively.

Regarding `O=C1NS(=O)(=O)N(CC2COC2)CC/C=C/[C@H](O)[C@@H]2CC[C@H]2CN2C[C@@]3(CCCc4cc(Cl)ccc43)COc3ccc1cc32` [Example 40, (1S,3′R,6′R,7′S,8′E)-6-chloro-7′-hydroxy-12′-(3-oxetanylmethyl)-3,4-dihydro-2H,15′H-spiro[naphthalene-1,22′-[20]oxa[13]thia[1,12,14]triazatetracyclo[14.7.2.0^3,6.0^19,24]pentacosa[8,16,18,24]tetraen]-15′-one 13′,13′-dioxide], the values for the 50% inhibitory concentration (IC50) in assay [1] (setting [5]) and in assay [2] (setting [4]) were 0.000462 µM and 0.971 µM, respectively.

As to `Cn1cnc(CO[C@H]2/C=C/C[C@@H]3CCC[C@H]3S(=O)(=O)NC(=O)c3ccc4c(c3)N(C[C@@H]3CC[C@H]32)C[C@@]2(CCCc3cc(Cl)ccc32)CO4)n1` (single isomer, unassigned) [Example 328], the values for the IC50 in assay [1] (setting [5]) and in assay [2] (16 h) were 0.00044 µM and 0.428 µM, respectively.

Consider `CC(C)(C)S(=O)(=O)CC[C@H]1CC/C=C/[C@H](O)[C@@H]2CC[C@H]2CN2C[C@@]3(CCCc4cc(Cl)ccc43)COc3ccc(cc32)C(=O)NS1(=O)=O` (single isomer, unassigned) [Example 155], for which the IC50 in assay [1] (setting [5]) came to 0.000846 µM; in assay [2] (16 h) it was 11.6 µM.

As for `Cc1nnc(CO[C@H]2/C=C/CC[C@@H](C)S(=O)(=O)NC(=O)c3ccc4c(c3)N(C[C@@H]3CC[C@H]32)C[C@@]2(CCCc3cc(Cl)ccc32)CO4)o1` [Example 412, (1S,3′R,6′R,7′S,8′E,12′R)-6-chloro-12′-methyl-7′-((5-methyl-1,3,4-oxadiazol-2-yl)methoxy)-3,4-dihydro-2H,15′H-spiro[naphthalene-1,22′-[20]oxa[13]thia[1,14]diazatetracyclo[14.7.2.0^3,6.0^19,24]pentacosa [8,16,18,24]tetraen]-15′-one 13′,13′-dioxide], the IC50 in assay [1] (setting [5]) is 0.000267 µM; in assay [2] (setting [4]) it was 0.325 µM.

With `C[C@H]1C/C=C/C[C@H](O)[C@@H]2CC[C@H]2CN2C[C@@]3(CCCc4cc(Cl)ccc43)COc3ccc(cc32)C(=O)NS(=O)(=O)[C@H]1C` (single isomer, unassigned) [Example 557], the IC50 stood at 0.00108 µM in assay [1] (setting [3]) and 1.04 µM in assay [2] (16 h).

Regarding `CC[C@@H]1[C@@H](C)C/C=C/[C@H](OCCOC)[C@@H]2CC[C@H]2CN2C[C@@]3(CCCc4cc(Cl)ccc43)COc3ccc(cc32)C(=O)NS1(=O)=O` [Example 740, (1S,3′R,6′R,7′S,8′E,11′S,12′R)-6-chloro-12′-ethyl-7′-(2-methoxyethoxy)-11′-methyl-3,4-dihydro-2H,15′H-spiro[naphthalene-1,22′-[20]oxa[13]thia[1,14]diazatetracyclo[14.7.2.0^3,6.0^19,24]pentacosa [8,16,18,24]tetraen]-15′-one-13′, 13′-dioxide], the half-inhibitory concentration (IC50) in assay [1] (setting [3]) turned out to be 0.000543 µM; in assay [2] (setting [4]) it was 0.17 µM.

Regarding `C[C@H]1[C@H](C)/C=C/[C@H](O)[C@@H]2CC[C@H]2CN2C[C@@]3(CCCc4cc(Cl)ccc43)COc3ccc(cc32)C(=O)NS(=O)(=O)[C@@H]1C` (single isomer, unassigned) [Example 1042], the IC50 turned out to be 0.00078 µM in assay [1] (setting [5]) and 0.393 µM in assay [2] (setting [6]).

In the case of `COCCO[C@H]1/C=C/C[C@H](C)[C@@H](CCOC)S(=O)(=O)NC(=O)c2ccc3c(c2)N(C[C@@H]2CC[C@H]21)C[C@@]1(CCCc2cc(Cl)ccc21)CO3` (single isomer, unassigned) [Example 397], the half-inhibitory concentration (IC50) in assay [1] (setting [5]) was found to be 0.000228 µM; in assay [2] (16 h), 0.143 µM.

With `C[C@@H]1[C@@H](C)C/C=C/[C@H](OCCN2CCOCC2=O)[C@@H]2CC[C@H]2CN2C[C@@]3(CCCc4cc(Cl)ccc43)COc3ccc(cc32)C(=O)NS1(=O)=O` [Example 727, (1S,3′R,6′R,7′S,8′E,11′S,12′R)-6-chloro-11′,12′-dimethyl-7′-(2-(3-oxo-4-morpholinyl)ethoxy)-3,4-dihydro-2H,15′H-spiro[naphthalene-1,22′-[20]oxa[13]thia[1,14]diazatetracyclo[14.7.2.0^3,6.0^19,24]pentacosa [8,16,18,24]tetraen]-15′-one-13′, 13′-dioxide], the values for the IC50 in assay [1] (setting [3]) and in assay [2] (setting [4]) were 0.000365 µM and 0.147 µM, respectively.

As for `C[C@H]1C/C=C/[C@H](O)[C@@H]2CC[C@H]2CN2C[C@@]3(CCCc4cc(Cl)ccc43)COc3ccc(cc32)C(=O)NS(=O)(=O)N1CCN1CCOCC1` [Example 66, (1S,3′R,6′R,7′S,8′E,11′S)-6-chloro-7′-hydroxy-11′-methyl-12′-(2-(4-morpholinyl)ethyl)-3,4-dihydro-2H,15′H-spiro[naphthalene-1,22′-[20]oxa[13]thia[1,12,14]triazatetracyclo[14.7.2.0^3,6.0^19,24]pentacosa[8,16,18,24]tetraen]-15′-one 13′,13′-dioxide], the IC50 in assay [1] (setting [5]) came to 0.00231 µM; in assay [2] (setting [4]), 0.492 µM.

`C[C@H]1C/C=C/[C@H](O)[C@@H]2CC[C@H]2CN2C[C@@]3(CCCc4cc(Cl)ccc43)COc3ccc(cc32)C(=O)NS(=O)(=O)N1Cc1ccccn1` (single isomer, unassigned) [Example 667]: the IC50 in assay [1] (setting [3]) came out at 0.000244 µM; in assay [2] (16 h) it was 0.378 µM.

As for `CC(=O)O[C@H]1/C=C/C[C@H]2CCCN2S(=O)(=O)NC(=O)c2ccc3c(c2)N(C[C@@H]2CC[C@H]21)C[C@@]1(CCCc2cc(Cl)ccc21)CO3` (single isomer, unassigned) [Example 348], the half-inhibitory concentration (IC50) is 0.00686 µM in assay [1] (setting [5]) and 3.56 µM in assay [2] (setting [4]).

In the case of `O=C1NS(=O)(=O)CC/C=C/C[C@H](O)[C@@H]2CC[C@H]2CN2C[C@@]3(CCCc4cc(Cl)ccc43)COc3ccc1cc32` (single isomer, unassigned) [Example 846], the values for the half-inhibitory concentration (IC50) in assay [1] (setting [3]) and in assay [2] (setting [4]) were 0.00218 µM and 2.76 µM, respectively.

As to `CO[C@H]1/C=C/CC[C@@H](CC(C)(C)OC)S(=O)(=O)NC(=O)c2ccc3c(c2)N(C[C@@H]2CC[C@H]21)C[C@@]1(CCCc2cc(Cl)ccc21)CO3` (single isomer, unassigned) [Example 615], the IC50 in assay [1] (setting [3]) turned out to be 0.000696 µM; in assay [2] (16 h), 0.643 µM.

Turning to `C[C@@H]1[C@@H](C)C/C=C/[C@H](O[C@H]2CCOC2=O)[C@@H]2CC[C@H]2CN2C[C@@]3(CCCc4cc(Cl)ccc43)COc3ccc(cc32)C(=O)NS1(=O)=O` (single isomer, unassigned) [Example 427], the IC50 was determined as 0.000414 µM in assay [1] (setting [5]) and 0.204 µM in assay [2] (16 h).

Regarding `CO[C@H]1/C=C/[C@@H](C)[C@H](C)[C@@H](C)S(=O)(=O)NC(=O)c2ccc3c(c2)N(C[C@@H]2CC[C@H]21)C[C@@]1(CCCc2cc(Cl)ccc21)CO3` [Example 1053, (1S,3′R,6′R,7′S,8′E,10′R,11′S,12′R)-6-chloro-7′-methoxy-10′,11′,12′-trimethyl-3,4-dihydro-2H,15′H-spiro[naphthalene-1,22′-[20]oxa[13]thia[1,14]diazatetracyclo[14.7.2.0^3,6.0^19,24]pentacosa [8,16,18,24]tetraen]-15′-one 13′,13′-dioxide], the results for the IC50 in assay [1] (setting [5]) and in assay [2] (setting [6]) were 0.00119 µM and 1.48 µM, respectively.

For `COCC[C@H]1/C=C/[C@H](OC)[C@@H]2CC[C@H]2CN2C[C@@]3(CCCc4cc(Cl)ccc43)COc3ccc(cc32)C(=O)NS(=O)(=O)[C@H](C)C1` [Example 204, (1S,3′R,6′R,7′S,8′E,10′R,12′R)-6-chloro-7′-methoxy-10′-(2-methoxyethyl)-12′-methyl-3,4-dihydro-2H,15′H-spiro[naphthalene-1,22′-[20]oxa[13]thia[1,14]diazatetracyclo[14.7.2.0^3,6.0^19,24]pentacosa [8,16,18,24]tetraen]-15′-one 13′,13′-dioxide], the IC50 in assay [1] (setting [5]) was found to be 0.000732 µM; in assay [2] (setting [4]), 0.686 µM.
